# Source: patent publication US8815947B2, “Methods of treating metabolic disorders” (Case Western Reserve University, priority 2007, dated 2014)
# Where two headings read alike, the source gives them in different places.
# What was measured:
# [1] = tested on: PPARβ/δ target genes FIAF, ADRP, and PDK-1; assay: Q-PCR of endogenous PPARβ/δ target genes in HaCaT cells; format: cell-based, human; conditions: for expression of mRNA of PPARβ/δ target genes FIAF, ADRP and PDK-1: normalized to 18s mRNA
# Experimental: (§1) FIG. 1C illustrates graphs showing the levels of mRNA of the PPARβ/δ target genes FIAF, ADRP, and PDK-1 expressed from HaCaT cells treated with the denoted ligands (0.1 μM, 4 hr). Levels of mRNA of the PPARβ/δ target genes FIAF, ADRP, and PDK-1 were analyzed by Q-PCR and normalized to 18s mRNA. FIG. 1D illustrate a graph showing the level of ADRP mRNA in HaCaT cells that were transfected with control siRNA or PPARβ/δ siRNA (24 hr.), and then treated with the denoted ligands (0.1 μM, 4 hr). ADRP mRNA was analyzed by QPCR and normalized to 18s mRNA. […] FIG. 1F illustrates a graph of the total activation of HaCaT cells transfected with a RARE-driven luciferase reporter. Cells were treated with RA at the denoted concentrations (15 hr), lysed, and luciferase activity measured and corrected for β-galactosidase activity. Data were normalized to the basal activity. […] FIG. 1G illustrates a graph of the level of expression of mRNA of the RAR target gene Cyp26α in cells that were treated with the denoted ligands. Expression of mRNA of the RAR target gene Cyp26α was analyzed by Q-PCR and normalized to 18s mRNA.
# Quantitative real-time PCR (Q-PCR). RNA was extracted and cDNA generated using Gene Amp RNA PCR (Applied Biosystems, Foster City, Calif.). Q-PCR analyses for PDK-1 were conducted using TaqMan chemistry and Assays on Demand probes (Applied Biosystems, PDK1-Hs00176884_ml, ADRP-Hs00765634_ml, FIAF-Hs00211522_ml), Cyp26a-Hs01075671_gl, BTG2-Hs00198887_ml, cyclin D1 0 Hs00277039-ml. […] Analyses were carried out using the relative standard curve method (Applied Biosystems Technical Bulletin no. 2).
# [2] = tested on: PPAR β/δ target genes PDK1 and FIAF; assay: Real-time PCR of PDK1 and FIAF in cultured adipocytes; format: cell-based
# Text: We then used real-time PCR to examine the effects of these ligands on the expression of PDK1 and another known PPAR β/δ target gene, FIAF.
# [3] = tested on: Akt; assay: Immunoblots of phospho-Akt in HaCaT cells; format: cell-based, human; conditions: ligand 0.1 μM, 12 hr, immunoblot
# Experimental: (§2) FIG. 1B illustrates a graph showing the results of the total activation of cells cotransfected with either control siRNA or siRNA for PPARβ/δ, and then treated with RA at the denoted concentrations. FIG. 1C illustrates graphs showing the levels of mRNA of the PPARβ/δ target genes FIAF, ADRP, and PDK-1 expressed from HaCaT cells treated with the denoted ligands (0.1 μM, 4 hr). Levels of mRNA of the PPARβ/δ target genes FIAF, ADRP, and PDK-1 were analyzed by Q-PCR and normalized to 18s mRNA. FIG. 1D illustrate a graph showing the level of ADRP mRNA in HaCaT cells that were transfected with control siRNA or PPARβ/δ siRNA (24 hr.), and then treated with the denoted ligands (0.1 μM, 4 hr). ADRP mRNA was analyzed by QPCR and normalized to 18s mRNA. Data are mean±SEM, n=3. FIG. 1E illustrates immunoblots of […], total Akt, and β-tubulin in cells treated with denoted ligands (0.1 μM, 12 hr). Data from a representative experiment, which was repeated 4 times with similar results are shown. FIG. 1F illustrates a graph of the total activation of HaCaT cells transfected with a RARE-driven luciferase reporter. Cells were treated with RA at the denoted concentrations (15 hr), lysed, and luciferase activity measured and corrected for β-galactosidase activity. […] Expression of mRNA of the RAR target gene Cyp26α was analyzed by Q-PCR and normalized to 18s mRNA. […]
# [4] = tested on: RAR; assay: Transactivation assay, RARE-driven luciferase reporter in HaCaT cells; format: cell-based, human; conditions: RA 15 hr
# Experimental: as §1
# Transactivation assays. Cells were cultured in 24-well plates and co-transfected with (PPRE)3-luciferase reporter vector (100 ng), a vector harboring the appropriate iLBP (in pCDNA 3.1, 200 ng), and pCH110, a β-galactosidase expression plasmid (50 ng). […]
# [5] = tested on: RAR target gene Cyp26α; assay: Q-PCR of RAR target gene Cyp26α in HaCaT cells; format: cell-based, human; conditions: normalized to 18s mRNA
# Experimental: as §2, with “FIG. 1F illustrates a graph of the total activation of HaCaT cells transfected with a RARE-driven luciferase reporter.” left out
# Quantitative real-time PCR (Q-PCR). […]
# [6] = molecular target: T1, GFP-FABP5 (Homo sapiens, UniProt Q01469); assay: Confocal fluorescence microscopy of GFP-FABP5 in live COS-7 cells; format: cell-based; conditions: ligand 1 μM, 30 min
# T1 construct: expressed in transfected cells; host or cells: COS-7
# Experimental: Images were acquired from live cells before and after a 30 min. treatment with RA (1 μM). […] Forty cells of each treatment group were analyzed (mean±SEM).
# Confocal fluorescence microscopy. COS-7 cells were plated in 35 mm glass bottom microwell dishes (Mattek) in DMEM containing 5% charcoal-treated FBS (75,000 cells per plate), grown for 12 hr. and transfected using Fugene (Roche) with an expression vector harboring GFP-tagged FABP5 (EGFP, 250 ng DNA per plate). Following a 48 hr incubation, medium was replaced with serum-free DMEM, and live cells were imaged using a Leica TCS SP2 confocal microscope equipped with a 40× oil immersion lens. After imaging, cells were treated with ligands (1 μM), incubated at 37° C. for 30 min and imaged again. An average of 40 cells were analyzed using ImageJ (National Institute of Health).
# [7] = tested on: obese mice fed a high fat/high sucrose diet; assay: Diet-induced mouse model of obesity, systemic RA treatment; format: in vivo
# Experimental: We have now completed a pilot experiment to examine the notion that all-trans-retinoic acid (RA) suppresses obesity and insulin resistance. Experiments were carried out using both cultured adipocytes and a diet-induced mouse model of obesity.
# For the in vivo experiments, C57BU6J mice were fed a high fat/high sucrose diet for 16 weeks, when they weighed 1.5 fold more than a cohort fed a standard diet. […] Obese mice were separated into two groups. Both groups were continually maintained on the high fat/high sucrose diet, and one of them was systemically treated with RA.
# An important measure of insulin sensitivity is the ability of an animal to clear glucose from plasma. This parameter is assessed by glucose tolerance tests (GTT) in which glucose is administered to the mice and the kinetics of its clearance from blood measured.
# [8] = molecular target: T2, PPARβ/δ (Homo sapiens, UniProt Q03181); assay: Transactivation assay, PPRE-driven luciferase reporter in HaCaT cells; format: cell-based; design: endogenous in cells; host or cells: HaCaT
# T2 sequence (Q03181 1-441): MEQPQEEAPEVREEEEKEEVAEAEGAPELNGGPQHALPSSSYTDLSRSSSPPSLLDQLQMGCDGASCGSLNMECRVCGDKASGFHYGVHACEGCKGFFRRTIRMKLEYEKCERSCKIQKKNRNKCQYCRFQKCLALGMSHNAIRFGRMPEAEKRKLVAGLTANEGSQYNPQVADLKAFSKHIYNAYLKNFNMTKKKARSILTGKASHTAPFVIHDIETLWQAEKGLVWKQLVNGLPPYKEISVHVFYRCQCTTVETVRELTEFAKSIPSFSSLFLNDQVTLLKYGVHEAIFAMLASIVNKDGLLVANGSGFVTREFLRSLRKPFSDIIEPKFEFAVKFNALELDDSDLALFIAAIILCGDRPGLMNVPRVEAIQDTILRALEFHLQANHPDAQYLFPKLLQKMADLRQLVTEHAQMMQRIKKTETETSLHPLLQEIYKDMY
# Experimental: The ability of RA to activate PPARβ/δ in the human keratinocyte cell line HaCaT was examined. Transactivation assays were conducted in HaCaT cells transfected with a PPRE-driven luciferase reporter. Cells were treated with the ligands denoted in FIG. 1 for 15 hours, lysed and luciferase activity was measured and corrected for β-galactosidase activity. Data was normalized to the basal activity. Data are mean±SEM, n=3
# (§3) Transactivation assays. Cells were cultured in 24-well plates and co-transfected with (PPRE)3-luciferase reporter vector (100 ng), a vector harboring the appropriate iLBP (in pCDNA 3.1, 200 ng), and pCH110, a β-galactosidase expression plasmid (50 ng). In some experiments, an expression vector encoding RAR or PPARβ/δ (in pSG5, 50 ng) was cotransfected. Transfections were carried out using Fugene (Roche Diagnostics Corporation) according to the protocol of the manufacturer. Twenty-four hours following transfection, medium was replaced by DMEM, and ligands were added (RA—in ethanol, other ligands—in dimethylsulfoxide). Following 24 hr of treatment, cells were lysed and lysates assayed for luciferase activity (Luciferase assay system, Promega) which was corrected for β-galactosidase activity. Experiments were carried out in triplicates.
# [9] = molecular target: T3, FABP5 (Homo sapiens, UniProt Q01469); assay: Fluorescence-based binding assay (ANS titration and competition); design: GST; made in house; host or cells: E. coli BL21
# Target sequence in this assay (Q01469 whole entry, species assumed): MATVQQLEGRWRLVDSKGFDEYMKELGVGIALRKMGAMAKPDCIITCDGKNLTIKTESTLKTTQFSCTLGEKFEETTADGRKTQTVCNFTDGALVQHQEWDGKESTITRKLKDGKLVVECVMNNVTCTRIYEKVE
# Experimental: Binding assays were carried out by fluorescence titrations using a Fluorolog 2 DMIB spectrofluorometer (SPEX Instruments, Edison, N.J.). […] In the first step, Kd for the association of the protein with the fluorescent fatty acid probe ANS was measured. Protein (1 μM) was titrated with ANS from a concentrated solution in ethanol. Ligand binding was monitored by following the increase in the fluorescence of the ligand upon binding to the protein (λex-370 nm; λem-475 nm). Titration curves were analyzed (Norris and Li, 1998) to yield the number of binding sites and Kd. Kds for binding of non-fluorescent ligands were then measured by monitoring their ability to compete with fluorescent probes for binding. […] Kds were extracted from the EC50 of the competition curve and the measured Kd for the probe. Analyses were carried out using Origin 7.5 software (MicroCal Software Inc., Northampton, Mass.).
# [10] = molecular target: T2, PPARβ/δ; assay: Transactivation assay in COS-7 cells, PPRE reporter with PPARβ/δ expression vector; format: cell-based; design: expressed in transfected cells; host or cells: COS-7; conditions: COS-7 cells cotransfected with PPARβ/δ expression vector
# Experimental: as §3
# [11] = molecular target: T3, FABP5; assay: Subcellular fractionation and immunoblot of endogenous FABP5 in HaCaT cells; format: cell-based; design: To monitor the effects of ligands on the localization of endogenous FABP5 in HaCaT cells; endogenous in cells; host or cells: HaCaT; conditions: ligand 1 μM, 30 min, subcellular fractionation
# Target sequence in this assay (Q01469 whole entry): as the sequence (Q01469 whole entry, species assumed) above
# Experimental: FIG. 2C illustrates an immunoblot of HaCaT cells treated with denoted RA or with stearic acid (1 μM, 30 min.). Nuclei were separated from cytosol by subcellular fractionation (Calbiochem ProtoExtract Subcellular Proteome Extraction kit) and analyzed for the presence of FABP5 by immunoblots.
# The subcellular localization of FABP5 was then examined. […] To monitor the effects of ligands on the localization of endogenous FABP5 in HaCaT cells, cells were treated with vehicle, RA, or stearate, subjected to subcellular fractionation, and the presence of FABP5 in cytosol and in nuclei examined by immunoblots (FIG. 2C).
# [12] = obese mice on high fat diet, RA treated
# T1 sequence (Q01469 whole entry): as the sequence (Q01469 whole entry, species assumed) above
structure (smiles),measurement,setting,value
"C/C(=C\c1ccc(C(=O)O)cc1)c1ccc2c(c1)C(C)(C)CCC2(C)C [TTNPB, 4-[(E)-2-(5,6,7,8-Tetrahydro-5,5,8,8-tetramethyl-2-naphthalenyl)-1-propenyl]benzoic acid]","expression of mRNA of PPARβ/δ target genes FIAF, ADRP and PDK-1","[1]; ligand 0.1 μM, 4 hr",little effect
same,expression of FIAF and PDK1 mRNA,[2],down-regulation of the two genes
"CC1=C(/C=C/C(C)=C/C=C/C(C)=C/C(=O)O)C(C)(C)CCC1 [RA, all-trans-retinoic acid]",induction of ADRP mRNA after PPARβ/δ siRNA,"[1]; 80% decrease in PPARβ/δ expression, ligand 0.1 μM, 4 hr",significantly hampered
same,induction of ADRP mRNA after FABP5 siRNA,[1]; about 80% decrease in FABP5 protein,markedly attenuated
same,"expression of mRNA of PPARβ/δ target genes FIAF, ADRP and PDK-1","[1]; ligand 0.1 μM, 4 hr",upregulated the expression of mRNA for all three
same,phosphorylation level of Akt,[3],significantly increased
same,expression of RARE-driven luciferase reporter,[4],upregulated the expression of a reporter gene construct
same,expression of mRNA for CYP26α,[5],efficiently upregulated
same,subcellular distribution of GFP-FABP5 (nuclear/cytoplasmic),[6],distinct shift of the protein into the nucleus
same,expression of FIAF and PDK1 mRNA,[2],enhanced the expression of these genes
same,hepatic lipid accumulation (steatosis),[7]; livers of mice fed a high fat diet and treated with RA,all but devoid of lipid stores
same,weight of fat tissue (white adipose tissue),[7]; [12],decreased by over two fold
same,"weights of liver, skeletal muscle or brown adipose tissue (BAT)",[7]; [12],without affecting
same,food consumption,"[7]; obese mice on high fat diet, RA treated vs non-treated cohort",higher than that of the non-treated cohort
same,loss of body weight,"[7]; obese mice on high fat/high sucrose diet, five week RA treatment, 0.16 mg/day systemic",~15%
same,RA-induced PPRE reporter response after PPARβ/δ siRNA,[8]; PPARβ/δ expression decreased by about 80% by siRNA,markedly suppressed
same,transcription of the PPRE-driven luciferase reporter,"[8]; ligand 15 hours, GW0742/TTNPB 1 μM, RA at several concentrations",enhanced the expression of the PPRE-driven reporter and did so in a dose responsive manner
same,Kd,"[9]; mean±SD, n=3, extracted from EC50 of competition curve and Kd of probe, read-out: Kd for FABP5, fluorescence competition titration against ANS",34.8 ± 6.6 nM
same,expression of PPRE-driven reporter,[10],enhanced the expression of the PPRE-driven reporter in a dose-responsive manner
same,nuclear localization of endogenous FABP5,[11],accumulates in the nucleus
"O=S(=O)(O)c1cccc2cccc(Nc3ccccc3)c12 [ANS, Anilinonaphtalene-8-sulphonic acid]",Kd,"[9]; mean±SD, n=3, protein 1 μM titrated with probe, read-out: Kd for FABP5, direct fluorescence titration",57 ± 7.3 nM
CC1=C(/C=C/C(C)=C\C=C\C(C)=C\C(=O)O)C(C)(C)CCC1 [9-cis-RA],"expression of mRNA of PPARβ/δ target genes FIAF, ADRP and PDK-1","[1]; ligand 0.1 μM, 4 hr",modest response
CCCCCCCCCCCCCCCCCC(=O)O [stearic acid],subcellular distribution of GFP-FABP5 (nuclear/cytoplasmic),[6],did not affect the subcellular distribution
Cc1cc(SCc2sc(-c3ccc(C(F)(F)F)c(F)c3)nc2C)ccc1OCC(=O)O [GW0742],phosphorylation level of Akt,[3],significantly increased
same,subcellular distribution of GFP-FABP5 (nuclear/cytoplasmic),[6],distinct shift of the protein into the nucleus
same,Kd,[9],42.3 ± 4.5 nM
